# According to patent US20250051762A1, “PLATFORM USING DNA-ENCODED SMALL MOLECULE LIBRARIES AND RNA SELECTION TO DESIGN SMALL MOLECULES THAT TARGET RNA” (University of Florida Research Foundation, Incorporated, priority 2021, published 2025):
# What was measured:
# Assay type in all cases: cell-based, human
# [1] = system: MCF-10a cells expressing mutant pri-miR-27a; assay: Migration of MCF-10a cells expressing mutant pri-miR-27a; conditions: forced expression of mutated pri-miR-27a
# Description: MCF-10a cells were transfected with plasmids to express pri-miR-27a and mutant pri-miR-27a in 12- or 24-well plates with Lipofectamine 2000 per the manufacturer's protocol. For treatment of compounds, stocks were diluted in growth medium and added to cells for 48 h. The miRCURY miR-27a LNA inhibitor (QIAGEN, Cat #339121) was used as a positive control by diluting in growth medium to a final concentration of 1 nM. The miRCURY LNA Negative Control (QIAGEN, Cat #YI00199007-DDA) was used as a negative control, which has also diluted in growth medium to a final concentration of 1 nM.
# Migration assay: MDA-MB-231 cells were grown in 60 mm diameter dishes and treated as described in “Cell culture and compound treatment” for 12 h. The medium was then removed and replaced with growth medium lacking FBS but with the same concentration of compound. After 12 h of serum starvation, the cells were detached and seeded to ThinCert™ (GBO) 24-well hanging inserts with 8 μm pores (˜5×10^4 cells per insert). Fresh growth medium with FBS was dispended in a 24-well plate (600 μL each well), and the ThinCert™ hanging inserts containing cells were then placed into the wells. After incubating for 24 h, the growth medium in the inserts was removed, and the remaining cells were washed twice with 1×DPBS. […] The remaining cells were then imaged by microscopy and counted for quantification (3 fields of view per sample).
# pri-miR-27a = assay: RT-qPCR of pri- and mature miR-27a in LNCaP cells
# Description: (§1) Cell lines. Compounds were tested in MDA-MB-231 TNBC cells (HTB-26, ATCC), LNCaP metastatic prostate cancer cells (gifted from Junli Luo lab), MCF-7 (HTB-22, ATCC) breast cancer cells, HeLa cervical adenocarcinoma cells (CCL-2, ATCC), and MCF-10a, a model of healthy breast epithelial cells (CRL-10317, ATCC).
# (§2) Cell culture and compound treatment. All cells were maintained at 37° C. with 5% CO2. MDA-MB-231 and LNCaP cells were cultured in RPMI 1640 medium with L-glutamine & 25 mM HEPES (Corning) supplemented with 10% (v/v) fetal bovine serum (FBS; Sigma) and 1× (v/v) Antibiotic-Antimycotic solution (Corning). MCF-7 and HeLa cells were cultured in DMEM medium with 4.5 g/L glucose (Corning), supplemented with 10% FBS, 1× (v/v) Glutagro (Corning), and 1× (v/v) Antibiotic-Antimycotic solution. […]
# (§3) Analysis of mRNA abundance: Each cell line was grown as a monolayer in 12- or 24-well plates and treated as described in “Cell culture and compound treatment”. […] Relative abundance of mature miRNAs was calculated by normalizing to RNU6, and relative abundance for pri-miRNAs and mRNAs was calculated by normalizing to 18S ribosomal RNA, using the AAC, method. […]
# miR-24-2 = assay: RT-qPCR of mature miR-24-2 in MDA-MB-231 cells
# Description: as §1, §2, §3
# WT pri-miR-27a = assay: RT-qPCR of miR-27a biogenesis in MCF-10a cells transfected with WT pri-miR-27a; conditions: WT pri-miR-27a plasmid, 48 h
# Source text: To gauge the specificity of 9 for pri-miR-27a, inhibition of biogenesis was first studied in a cellular model of healthy breast epithelium, MCF-10a, in which miR-27a expression is not detectable (Ct>31). MCF-10a cells were transfected with a plasmid encoding WT pri-miR-27a or mutant in which the two 5′GAG/3′CCC internal loops at and nearby the Drosha processing site were mutated to base pairs. In the absence of compound treatment, both primary miRNA transcripts were processed similarly, generating mature miR-27a, as determined by RT-qPCR.
# as §1
# Cell culture and compound treatment. All cells were maintained at 37° C. with 5% CO2. […]
# as §3
compound,measurement,setting,value
C#CCN(CC(N)=O)C(=O)C[C@H](Cc1c[nH]c2ccccc12)NC(=O)[C@@H]1C[C@H](NC(=O)Cn2c(=O)[nH]c3ccccc3c2=O)CN1 [Compound 9],rescue of migratory phenotype,[1],did not inhibit biogenesis of the mutated pri-miR-27a in MCF-10A (FIG. 3B) or rescue the migratory phenotype
same,dose with significant inhibition of miR-27a processing,pri-miR-27a,100 nM
same,effect on levels of mature miR-24-2,miR-24-2,no effect
same,mature miR-27a levels,WT pri-miR-27a,reduction
same,pri-miR-27a levels,WT pri-miR-27a,increase
